According to PMC13252604, “First Generation Proteolysis Targeting Chimeras (PROTACs) for the Treatment of Progeria” (Advanced Science, 2026):

Test system: Lmna^G609G/G609G fibroblasts
Experiment: RT-qPCR of senescence markers in mouse progeroid cells
Assay type: cell-based
Conditions: 5 µM
Protocol: Confocal fluorescence microscopy images are representative of 2 independent experiments. […] Representative cropped immunoblots are shown. […] MW, molecular weight (in kDa) markers. (C) PROTAC 2 decreases senescence‐associated β‐galactosidase (SA‐βgal) activity, interleukin (IL) 1α and p16 senescent markers. Lmna^G609G/G609G (G609G) or Lmna^+/+ (WT) fibroblasts were incubated with vehicle or compound 2 (5 µM). […] Data were analysed using one‐way ANOVA followed by Dunnett's post–hoc test. ^*, p < 0.05; ^**, p < 0.01, ^***, p < 0.001, ^****, p < 0.0001 vs G609G cells. […]
ferrocyanide, 0.6 mL 5 M NaCl, 0.2 mL 0.2 M MgCl2, (all from Sigma Aldrich) and 6.2 mL of deionized water in a total volume of 20 mL] in the dark in a humidified incubator at 37 °C for 24 h without CO2 supply. Then, an equal volume of the supernatant of each well was transferred to a new 96-well plate for fluorescence measurement. The resultant production of fluorescein was measured using a FluoStar Optima instrument (BMG Labtech) with an excitation of 485 nm and emission at 535 nm. […]
Total RNA was extracted by RNAeasy Mini Kit (Qiagen) according to the manufacturer instructions and subsequently quantified using the NanoPhotometer N60 (Implen). […] Quantitative real-time PCR was run in the QuantStudio 7FLEX (Applied Biosystems) system and results were normalized according to β-actin quantification. […]

CC1(C)Oc2cc3oc(=O)ccc3cc2C[C@@H]1OC(=O)CCCCCNc1cccc2c1C(=O)N(C1CCC(=O)NC1=O)C2=O (some centres unmarked) [compound 2]
interleukin (IL) 1α senescent marker: significantly reduced | p16 senescent marker: significantly reduced
